Each structure is given as a SMILES string.

One test relates to 3T1-L1 adipocytes. As to the kind of experiment: glucose uptake (glucose transport) in differentiated adipocytes. The class given is cell-based. Conditions: 10 μM, FIG. 13. As to the method: 3T1-L1 adipocytes (ATCC) were purchased, and 10% bovine calf serum (Hyclone) and 1% penicillin/streptomycin (Sigma) were added to a Dulbecco's Modified Eagle's Medium (Sigma) and cultured in a 5% CO2 culture medium. In order to differentiate preadipocyte cells into adipocytes, a culture plate was filled with cells and cultured for 48 hours. The cells were then replaced in a DMEM medium to which 10% fetal bovine serum (FBS) (Hyclone), 0.5 mM 3-isobutyl-1-methylxanthine (Sigma), 1 μM dexamethasone (Sigma), 5 μg/ml insulin (Sigma), and 1% penicillin/streptomycin were added and cultured for another 48 hours. Thereafter, the cells were further cultured for 14 days while being replaced in a medium containing 10% FBS, 5 μg/ml insulin, and 1% penicillin/streptomycin at two-day intervals to obtain fully differentiated adipocytes. […] As a positive control for measuring glucose uptake in blood, Metformin (Sigma; 10 μM), which is used as a diabetic therapeutic agent, was used, and novel ginsenoside GS #10, which is an example of the present disclosure, isolated from Ginseng seed extract and ginsenosides GS #01-GS #06, which are comparative examples of the present disclosure, were treated with 10 μM each. In addition, both insulin-dependent/independent glucose transport capacity was measured by treating insulin together, which may promote glucose uptake.

For another test, the system named is pancreatic lipase. The test can be described thus: pancreatic lipase activity inhibition (Pancreatic Lipase Activity Assay Kit). The class given is cell-based. Conditions: 10 μM, 1 hour; FIG. 22. As to the method:
The hepatocyte cell line HepG2 purchased from the International Center for Biological Resources (ATCC) were placed in Dulbecco's Modified Eagle's Medium (Sigma) to which 10% fetal bovine serum (Hyclone) and 1% penicillin/streptomycin (Sigma) were added, and cultured in a 5% CO2 incubator. As a positive control for the cells, Xenical (Sigma), which are used as pancreatic lipase inhibitors and anti-obesity therapeutic agents, and seven types of ginsenosides (GS #01-GS #06, GS #10; 10 μM each) extracted from Ginseng seed were treated for 1 hour. In addition, Pancreatic Lipase Activity Assay Kit (Abcam) was used to observe the inhibition of each lipase activity.

A further test concerns adipocyte cell 3T3-L1. As to the kind of experiment: fat accumulation in adipocytes (Oil-red O staining). The class given is cell-based. The settings on record: 10 μM during 48 hours of differentiation; FIG. 34. As to the method:
The adipocyte cell 3T3-L1 purchased from the International Center for Biological Resources (ATCC) were placed in Dulbecco's Modified Eagle's Medium (Sigma) to which 10% fetal bovine serum (Hyclone) and 1% penicillin/streptomycin (Sigma) were added, and cultured in a 5% CO2 incubator. In order to differentiate preadipocytes into adipocytes, the cells were filled in a culture plate and cultured. After 48 hours, the cells were replaced with Dulbecco's modified eagle medium (DMEM) to which 10% of fetal bovine serum (Hyclone), 0.5 mM of 3-isobutyl-1-methylxanthine (Sigma), 1 μM of dexamethasone (Sigma), 5 μg/ml of insulin (Sigma), 1% of penicillin/streptomycin (Sigma) were added and further cultured for 48 hours. […] As a control to confirm the effect of inhibiting adipocyte differentiation, 20 μM of bisphenol A diglycidyl ether (BADGE) (Sigma), a PPARγ (Peroxisome proliferator-activated receptor gamma) antagonist, was used. Thereafter, the cells were further cultured for 10 days while being replaced with a medium containing 10% FBS and 5 μg/ml insulin and 1% penicillin/streptomycin at two-day intervals to induce adipocyte differentiation.
Differentiated adipocytes treated with each of the seven types of ginsenosides were fixed with formaldehyde solution (Sigma), stained with Oil-red O staining solution (Sigma), and then dissolved with isopropanol (Sigma), and then the amount of the stained fat was quantified by measuring at 490 nm absorbance.

A further test concerns α-glucosidase. The test can be described thus: α-glucosidase enzyme activity inhibition. The class given is biochemical. The settings on record: Test Example 1, FIG. 12; ginseng seed ginsenosides compared. As to the method: (§1) As a polysaccharide degrading enzyme, pancreatic α-amylase and α-glucosidase were purchased from Sigma, and the enzyme activity of novel ginsenoside GS #10, which is an example of the present disclosure, isolated from Ginseng seed extract and ginsenosides GS #01-GS #06, which are comparative examples of the present disclosure, was measured. In order to measure α-amylase activity, enzyme solution was prepared by dissolving BSA 0.1 g, 0.01 g/L NaN3, α-amylase 0.2857 g in 50 mL of PBS (phosphate buffered saline), and 5 mM of p-nitrophenyl-α-D-maltopentoglycoside was dissolved in another PBS to make a substrate solution. 0.1 mL of the test substance was added to 0.5 mL of the enzyme solution, and then the initial absorbance was measured at 405 nm. After adding 0.5 mL of the substrate solution and reacting it for 5 minutes, the absorbance was measured again. The change in enzyme activity was measured by the difference in absorbance between the two reactions. The method for measuring α-glucosidase activity is the same as the method for measuring α-amylase activity, and differs only in α-glucosidase and substrate (p-nitrophenyl-α-D-glucopyranoside). As a positive control to observe the inhibition of enzyme activity, acarbose, which is an α-amylase inhibitor and α-glucosidase inhibitor derived from wheat seed sold by Sigma, was used.

The next test deals with T1, pancreatic α-amylase (Sus scrofa, UniProt P00690).
T1 construct: purchased Sigma
T1 sequence (P00690 16-511): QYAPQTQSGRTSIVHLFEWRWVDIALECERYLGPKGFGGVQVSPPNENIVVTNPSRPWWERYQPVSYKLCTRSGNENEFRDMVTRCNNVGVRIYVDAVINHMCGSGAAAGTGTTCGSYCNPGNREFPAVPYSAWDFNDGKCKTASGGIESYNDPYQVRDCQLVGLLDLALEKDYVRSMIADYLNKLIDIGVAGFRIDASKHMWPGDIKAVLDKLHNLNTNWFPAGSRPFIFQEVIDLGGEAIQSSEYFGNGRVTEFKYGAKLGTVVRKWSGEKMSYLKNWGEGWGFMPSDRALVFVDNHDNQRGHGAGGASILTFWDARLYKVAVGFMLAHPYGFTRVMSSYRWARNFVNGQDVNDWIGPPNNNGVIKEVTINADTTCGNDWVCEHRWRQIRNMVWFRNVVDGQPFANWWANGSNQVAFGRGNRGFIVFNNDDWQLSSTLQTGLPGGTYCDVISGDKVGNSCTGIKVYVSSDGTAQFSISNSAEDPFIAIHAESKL
As to the kind of experiment: α-amylase enzyme activity inhibition. The settings on record: Test Example 1, FIG. 11; ginseng seed ginsenosides compared. The class given is biochemical. As to the method:
as §1

Where [1] appears, read: combined with insulin (+insulin).
[2] abbreviates: material-only treatment (−insulin).

As for `CC(C)=CCC[C@](C)(O[C@@H]1O[C@H](CO)[C@@H](O)[C@H](O)[C@H]1O)[C@H]1CC[C@]2(C)[C@@H]1[C@H](O)C[C@@H]1[C@@]3(C)CC[C@H](O)C(C)(C)[C@@H]3[C@@H](O[C@@H]3O[C@H](CO)[C@@H](O)[C@H](O)[C@H]3O)C[C@]12C` [GS #01, ginsenoside Rg1], the glucose transport promotion entry in the test with 3T1-L1 adipocytes (setting [1]) was “further increase by insulin treatment”; with 3T1-L1 adipocytes (setting [2]), “statistically significant glucose transport promotion”.

With `CC(C)=CCC[C@](C)(O)[C@H]1CC[C@]2(C)[C@@H]1[C@H](O)C[C@@H]1[C@@]3(C)CC[C@H](O)C(C)(C)[C@@H]3[C@@H](O[C@@H]3O[C@H](CO)[C@@H](O)[C@H](O)[C@H]3O[C@@H]3O[C@@H](C)[C@H](O)[C@@H](O)[C@H]3O)C[C@]12C` [GS #02, ginsenoside Rg2], the figures for the glucose transport promotion result with 3T1-L1 adipocytes (setting [1]) and with 3T1-L1 adipocytes (setting [2]) were “further increase by insulin treatment” and “statistically significant glucose transport promotion”, respectively.

As to `CC(C)=CCC[C@](C)(O[C@@H]1O[C@H](CO)[C@@H](O)[C@H](O)[C@H]1O)[C@H]1CC[C@]2(C)[C@@H]1[C@H](O)C[C@@H]1[C@@]3(C)CC[C@H](O)C(C)(C)[C@@H]3[C@@H](O[C@@H]3O[C@H](CO)[C@@H](O)[C@H](O)[C@H]3O[C@@H]3O[C@@H](C)[C@H](O)[C@@H](O)[C@H]3O)C[C@]12C` [GS #03, ginsenoside Re], the glucose transport promotion entry in the test on 3T1-L1 adipocytes (setting [1]) is reported as “further increase by insulin treatment”; in the test on 3T1-L1 adipocytes (setting [2]) it was “statistically significant glucose transport promotion”.

Regarding `CC(C)=CCC[C@](C)(O[C@@H]1O[C@H](CO[C@@H]2O[C@H](CO)[C@@H](O)[C@H](O)[C@H]2O)[C@@H](O)[C@H](O)[C@H]1O)[C@H]1CC[C@]2(C)[C@@H]1[C@H](O)C[C@@H]1[C@@]3(C)CC[C@H](O[C@@H]4O[C@H](CO)[C@@H](O)[C@H](O)[C@H]4O[C@@H]4O[C@H](CO)[C@@H](O)[C@H](O)[C@H]4O)C(C)(C)[C@@H]3CC[C@]12C` [GS #05, ginsenoside Rb1, reference compound], in the test with pancreatic lipase, the “pancreatic lipase activity inhibitory effect” value is listed as “except for some of the previously known ginsenosides (GS #05, GS #06), all showed a significant inhibitory effect”. Also, the “fat accumulation inhibitory effect in adipocytes” value with adipocyte cell 3T3-L1 was “except some (GS #05, GS #06) of seven types of ginsenosides (GS #01-GS #06, GS #10; 10 μM each) extracted from Ginseng seeds, all of them was observed to reduce the amount of fats in adipocytes”. Also, the “α-glucosidase activity inhibitory effect” value in the test on α-glucosidase was “no activity inhibitory effect”.

As for `CC(C)=CCC[C@](C)(O[C@@H]1O[C@H](CO[C@@H]2OC[C@H](O)[C@H](O)[C@H]2O)[C@@H](O)[C@H](O)[C@H]1O)[C@H]1CC[C@]2(C)[C@@H]1[C@H](O)C[C@@H]1[C@@]3(C)CC[C@H](O[C@@H]4O[C@H](CO)[C@@H](O)[C@H](O)[C@H]4O[C@@H]4O[C@H](CO)[C@@H](O)[C@H](O)[C@H]4O)C(C)(C)[C@@H]3CC[C@]12C` [GS #06, ginsenoside Rb2, reference compound], the “pancreatic lipase activity inhibitory effect” value in the test with pancreatic lipase is listed as “except for some of the previously known ginsenosides (GS #05, GS #06), all showed a significant inhibitory effect”. Moreover, the “fat accumulation inhibitory effect in adipocytes” value in the test on adipocyte cell 3T3-L1 was “except some (GS #05, GS #06) of seven types of ginsenosides (GS #01-GS #06, GS #10; 10 μM each) extracted from Ginseng seeds, all of them was observed to reduce the amount of fats in adipocytes”. At pancreatic α-amylase, the “α-amylase activity inhibitory effect” value is “all except GS #06 showed significant activity inhibitory effect”. Moreover, in the test on α-glucosidase, the “α-glucosidase activity inhibitory effect” value is reported as “no activity inhibitory effect”.

`CN(C)C(=N)N=C(N)N` [metformin, Metformin]: the glucose transport promotion result in the test on 3T1-L1 adipocytes (setting [1]) is recorded as “the glucose transport is further increased as compared with the insulin-only treatment group”.

Values taken from patent US11000537B2, “Composition comprising novel ginsenoside” (AMOREPACIFIC CORPORATION, priority 2018, dated 2021).
